What was measured:
[1] = test system: STAT1 S727 phosphorylation; assay: STAT1 S727 phosphorylation by immunoblotting in HCT116 colon carcinoma cells; format: cell-based, human; settings: for inhibition of STAT1 S727 phosphorylation: HCT116, 24 hr treatment, different concentrations
Method: (§1) STAT1 S727 phosphorylation was analyzed by immunoblotting using the following primary antibodies: Phospho-Stat1 (Ser727) (D3B7) Rabbit mAb #8826 (used at 1:1000 dilution) and Rabbit Ab #9177 (used at 1:500 dilution) from Cell Signaling Technology (Danvers, Mass.), and total-STAT1 Stat1 p84/p91 Antibody (M-22): sc-592 from Santa Cruz Biotechnology (Dallas, Tex.), used at 1:500 dilution. As a loading control an antibody against a housekeeping protein GAPDH (6C5 mouse monoclonal antibody from Abcam), was used at 1:1000 dilution.
In the experiments shown in FIG. 2, this analysis was continued in HCT116 human colon carcinoma cells.

[2] = test system: TNFα-induced CXCL1 and CXCL2 transcription; assay: Induction of NFκB-regulated genes by TNFα in HEK-293 cells; format: cell-based, human
[3] = test system: proteins bound at NFκB-regulated and housekeeping genes; assay: Chromatin immunoprecipitation (ChIP) with quantitative real-time PCR in 293 cells; format: cell-based, human
Text: Sonicated chromatin was immunoprecipitated with the antibodies against the indicated proteins. The ChIP preps were used for quantitative real-time PCR amplification of different segments of the indicated genes (X-axes show the positions of the tested segments relative to transcription start sites). The results of this analysis for all four conditions (blue, control; red, Senexin A; green, TNFα; purple, TNFα plus Senexin A) are shown, with the genomic positions of the PCR primers diagrammed at the top of the figure.
(Burke et al., 2014) have recently shown that STAT1 cooperates with NFκB in the induction of CXCL1 and CXCL2 transcription by IL-1β in rat insulinoma cells. We have therefore tested whether TNFα-induced CXCL1 and CXCL2 transcription in HEK-293 cells involves STAT1 and whether pSTAT1 in this system is affected by CDK8/19 inhibition. This analysis was conducted by chromatin immunoprecipitation (ChIP) of 293 cells that were pre-treated with 5 μM CDK8/19 inhibitor Senexin A (Porter et al., 2012) or carrier for one hour, at which point either TNFα at 10 ng/ml or carrier was added for 30 min. Sonicated chromatin was extracted as described (Galbraith et al., 2013) and immunoprecipitated with the antibodies against the indicated proteins. […] The results of this analysis for all four conditions (untreated, Senexin A, TNFα, and TNFα plus Senexin A) are shown in FIG. 5, with the genomic positions of the tested ChIP primers diagrammed at the top of the figure.

[4] = test system: STAT1 S727 phosphorylation; assay: STAT1 S727 phosphorylation in whole-cell protein extracts of 293 cells; format: cell-based, human; settings: 5 μM
Method: (§2) Results are shown for three biological replicates.
as §1

[5] = test system: Pol II CTD phosphorylation; assay: Immunoblotting of total Pol II CTD phosphorylation in whole-cell lysates of 293 cells; format: cell-based, human; settings: 293 whole-cell lysates, same conditions as the ChIP
Text: as §2

[6] = test system: STAT1 S727 phosphorylation; assay: STAT1 S727 phosphorylation by immunoblotting in LNCaP-LN3 derivatives (DV and DK); format: cell-based, human; settings: treated for 5 hrs
Method: as §1
In the experiment shown in FIG. 1, human LNCaP-LN3 cells, an in vivo-derived metastatic variant of LNCaP prostate cancer cells were used. We have compared STAT1 S727 phosphorylation in two derivatives of LNCaP-LN3, one with shRNA knockdown of both CDK8 and CDK19 (CDK8 shRNA was expressed from lentiviral vector PHLB carrying blasticidin resistance marker; CDK19 shRNA was expressed from lentiviral vector pLKO.1 carrying puromycin resistance marker) (DK, double knockdown), and in control cells transduced with insert-free PHLB and pLK0.1 vectors (DV, double vector). […] The immunoblotting for phospho-STAT1 S727 (pSTAT1) and total STAT1 (tSTAT1) is shown in FIG. 1A, and image quantitation for the ratio of pSTAT1/tSTAT1 is shown in FIG. 1B. […]

[7] = test system: STAT1 in complexes with CDK8; assay: CDK8 immunoprecipitation from HCT116 cells, immunoblotted for total STAT1 or phospho-STAT1 S727; format: cell-based, human; settings: HCT116, 24 hrs, 10 μM
Text: To determine whether the effect of CDK8/19 inhibitors on STAT1 S727 phosphorylation involved direct interaction between CDK8 and STAT1, we have asked if STAT1 and CDK8 would co-immunoprecipitate, and if so, whether CDK8/19 kinase inhibition would affect STAT1 phosphorylation in complexes with CDK8.

[8] = test system: STAT1 S727 phosphorylation; assay: STAT1 S727 phosphorylation by immunoblotting in MCF7 breast cancer cells; format: cell-based, human
Method: as §1
(§3) FIG. 3 illustrates the inhibition of basal STAT1 S727 phosphorylation by CDK8/19 inhibitors in human breast cancer cell lines.

[9] = test system: STAT1 S727 phosphorylation; assay: STAT1 S727 phosphorylation by immunoblotting in SKBR3 breast cancer cells; format: cell-based, human; settings: SKBR3, 1 μM or 5 μM, after 30 min of treatment
Method: as §1, §3

[10] = test system: STAT1 S727 phosphorylation; assay: STAT1 S727 phosphorylation by immunoblotting in MDA-MB-361 breast cancer cells; format: cell-based, human; settings: MDA-MB-361, 6 hr, 5 μM
Method: as §1, §3

[11] = test system: STAT1 S727 phosphorylation; assay: In situ immunofluorescence staining for phospho-STAT1 S727 and total STAT1 in MCF7 cells; format: cell-based, human
[12] = test system: STAT1 S727 phosphorylation; assay: In situ immunofluorescence staining for phospho-STAT1 S727 and total STAT1 in HCT116 cells; format: cell-based, human
[13] = test system: STAT1 S727 phosphorylation; settings: Bancerek et al., 2013; cited from earlier work
[14] = 5 μM pre-treatment one hour, TNFα 10 ng/ml 30 min

In the case of `CN(C)C1CC23CCC4(O2)C(=CCC2(C)C(c5ccc6ccncc6c5)=CCC24)C=C3C(O)C1O` (stereo not drawn) [16-didehydro-cortistatin A], the “inhibition of STAT1 S727 phosphorylation” value [1] is reported as “inhibited STAT1 S727 phosphorylation similarly to Senexin B”.

For `N#Cc1ccc2ncnc(NCCc3ccccc3)c2c1` [Senexin A], the “regulation of housekeeping genes HGPRT and GAPDH” value [2] was “not regulated”, the “inhibition of TNFα induction of CXCL1” value ([2]; 5 μM, TNFα 10 ng/ml) was ~10 fold and the “inhibition of TNFα induction of CXCL2” value ([2]; 5 μM, TNFα 10 ng/ml) was ~10 fold. The “inhibition of TNFα induction of NFKBIA” value ([2]; 5 μM, TNFα 10 ng/ml) was ~1.4 fold, the “Pol II recruitment and distribution along the regulated genes” value [3, 14] was “moderate effect” and the “recruitment of p65 subunit of NFκB and CDK8 to promoters of NFκB-regulated genes” value [3, 14] was “little or no effect”. For the same compound, the “phospho-STAT1 S727 (pSTAT1) at CXCL1” value ([3]; 5 μM, TNFα) was “a strong effect”, the “phospho-STAT1 S727 (pSTAT1) at NFKBIA” value ([3]; 5 μM, TNFα) was “a weaker effect” and the “phospho-STAT1 S727 (pSTAT1) at the housekeeping genes” value ([3]; 5 μM, TNFα) was “little or no effect”. For the same compound, the “Pol II CTD phosphorylation (S5P, S2P) at the strongly regulated genes” value ([3]; 5 μM, TNFα, CXCL1 and CXCL2) was “strongly inhibited”, the “association of pSTAT1 with any of the tested genes” value ([3]; absence of TNFα, total of 90 min treatment) was “unaffected” and the “STAT1 S727 phosphorylation in whole-cell protein extracts” value [4] was “strongly inhibited”. For the same compound, the “treatment time after which the effect on STAT1 S727 phosphorylation is noticeable” value [4] was 15 min, the “treatment time after which the effect on STAT1 S727 phosphorylation is very strong” value [4] was 1 h and the “total Pol II CTD phosphorylation” value [5] was “not significantly affected”.

With `CN1CCN(C(=O)c2ccc3cc(CCNc4ncnc5ccc(C#N)cc45)ccc3c2)CC1` [Senexin B] the “concentration from which STAT1 S727 phosphorylation plateaus at a low level” value ([6]; LNCaP-LN3 DV and DK cells) was 1 µM, the “concentration from which basal STAT1 S727 phosphorylation is decreased (lowest concentration)” value ([6]; LNCaP-LN3 cells, pSTAT1/tSTAT1 ratio) was 16 nM and the “treatment time after which inhibition of STAT1 S727 phosphorylation is noticeable” value ([1]; HCT116, 5 μM) was 15 min. For the same compound, the “treatment time after which inhibition of STAT1 S727 phosphorylation is very strong” value ([1]; HCT116, 5 μM) was 1 h, the “inhibition of STAT1 S727 phosphorylation” value [1] was “concentration-dependent inhibition” and the “binding of total STAT1 to CDK8 (co-immunoprecipitation)” value [7] was “does not affect the binding of total STAT1”. For the same compound, the “phospho-STAT1 S727 in CDK8 immunoprecipitate” value [7] was “inhibits its phosphorylation at S727”, the “inhibition of STAT1 S727 phosphorylation, concentration series” value ([8]; MCF7, 24 hr treatment, indicated concentrations) was “concentration-dependent inhibition” and the “inhibition of STAT1 S727 phosphorylation” value ([8]; MCF7, 24 hr, 5 μM, two antibodies (#8826 and #9177)) was “inhibition of STAT1 S727 phosphorylation”. The “inhibition of STAT1 S727 phosphorylation, time course” value [9] was “strong inhibition”, the “inhibition of STAT1 S727 phosphorylation” value [10] was “inhibits STAT1 S727 phosphorylation” and the “staining with phospho-STAT1 S727 antibody in situ” value [11] was “inhibition of STAT1 S727 phosphorylation”. The “staining with the antibody against total STAT1” value [11] was “no apparent effect”, the “staining with phospho-STAT1 S727 antibody in situ” value [12] was “inhibition of STAT1 S727 phosphorylation” and the “staining with the antibody against total STAT1” value [12] was “no apparent effect”.

With Cortistatin A the “inhibition of STAT1 S727 phosphorylation” value [1] was “concentration-dependent inhibition”.

For `CN1CC[C@H](c2c(O)cc(O)c3c(=O)cc(-c4ccccc4Cl)oc23)[C@H](O)C1` [flavopiridol], the “enhancement of STAT1 S727 phosphorylation by LPS or anisomycin” value [13] is listed as “failed to inhibit”.

Reference: patent publication US20170115308A1, “ASSAY TO MEASURE EFFICACY OF CDK8/19 INHIBITORS” (SENEX BIOTECHNOLOGY, INC., priority 2014, published 2017)
